We go through 59 compounds from patent US20140349970A1 (ABBVIE INC., priority 2009, published 2014).

Molecules are shown by their SMILES. pIC50: −log10 of the molar value.

This test concerns the target T1, Syk catalytic domain (aa 356-635 with a C-terminal His-tag) (Homo sapiens, UniProt P43405).
T1 construct: His-tag (C); made in house
The test is described as follows: In vitro Syk kinase activity measured by trFRET, Syk catalytic domain. The test is classed as biochemical. The note with it: Syk catalytic domain (aa 356-635), trFRET, 0.001 mM ATP. An outline of the steps:
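Kinase reaction: 0.14 nM His-tagged catalytic domain, 0.2 μM biotin-TYR1 peptide, 0.001 mM ATP in 50 mM MOPSO pH 6.5 with MgCl2, MnCl2, DTT, BSA, vanadate, ~60 min at rt, then EDTA quench. Phosphoproduct detected by trFRET (Eu anti-pTyr antibody/streptavidin-APC, 665 nm emission); IC50 from signal in linear range.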
`Cc1nnc2cnc3[nH]c(-c4cnn(C)c4)cc3n12` [M.1.12] showed a negative logarithm of the IC50 (pIC50) of 5.00 to 6.00.
Then `COc1ccc2c(c1)c(-c1cc3c(ncc4cnc(CCC#N)n43)[nH]1)cn2C` [M.1.13], with greater than 7.00; and `COCCCc1ncc2cnc3[nH]c(-c4cn(C)c5ccc(OC)cc45)cc3n12` [M.1.14], with greater than 7.00; and `CNc1ncc2cnc3[nH]c(-c4ccc(C)cc4)cc3n12` [M.1.15], with 6.00 to 7.00.
With `Cc1ccc(-c2cc3c(ncc4cnc(N(C)C)n43)[nH]2)cc1` [M.1.16] the figure was 6.00 to 7.00.
The compound `COc1ccc2c(c1)c(-c1cc3c(ncc4cnc(N5CCCC5)n43)[nH]1)cn2C` [M.1.17] showed a pIC50 greater than 7.00.
Then `Cc1ccc(-c2cc3c(ncc4cnc(N5CCCC5)n43)[nH]2)cc1` [M.1.18], with 6.00 to 7.00; and `COc1ccc(-c2cc3c(ncc4nnc(C)n43)[nH]2)cc1` [M.1.19], with 5.00 to 6.00; and `COc1ccc2c(c1)c(-c1cc3c(ncc4nccn43)[nH]1)cn2C` [M.1.20], with 6.00 to 7.00.
`COCCN(C)c1cnc2cnc3[nH]c(-c4cn(C)c5ccc(OC)cc45)cc3n12` [M.1.21]: the pIC50 is greater than 7.00.
Take `COc1ccc(-c2cc3c(ncc4c(C)nc(C)n43)[nH]2)cc1` [M.1.22]: the pIC50 was 6.00 to 7.00.
Then `COc1ccc(-c2cc3c(ncc4c(C)ncn43)[nH]2)cc1` [M.1.23], with 5.00 to 6.00.
Compound `CS(=O)(=O)c1ccc(-n2c(=O)n(C3CCCCC3)c3c4cc[nH]c4ncc32)cc1` [M.1.24] had a negative-log IC50 (pIC50) of less than 5.00.
With `COc1ccc(-c2cc3c(ncc4cnc(C)n43)[nH]2)cc1` [M.1.25] the figure was greater than 7.00.
With `Cc1ncc2cnc3[nH]c(-c4cnn(C)c4)cc3n12` [M.2.1] the figure was 6.00 to 7.00; with `COc1ccc(-c2nn(C)c3c2cnc2[nH]cc(C#N)c23)cc1` [M.2.3], greater than 7.00; with `Cc1nc(-c2ccc(C(C)(C)O)cc2)c2cnc3[nH]cc(C#N)c3n12` [M.2.4], greater than 7.00.
`CN1CCN(CCNC(=O)Cc2cccc(-c3cc4c(ncc5cnn(C)c54)[nH]3)c2)CC1` [N.1, 2-(3-(1-Methyl-1,6-dihydropyrazolo[3,4-d]pyrrolo[2,3-b]pyridin-7-yl)phenyl)-N-(2-(4-methylpiperazin-1-yl)ethyl)acetamide] had a pIC50 of 5.00 to 6.00.
As to `Cn1ncc2cnc3[nH]c(-c4ccc(C(C)(C)O)cc4)cc3c21` [N.1.1], the pIC50 was greater than 7.00.
`CC(=O)NCc1cccc(-c2cc3c(ncc4cnn(C)c43)[nH]2)c1` [N.1.3] gave a negative-log IC50 (pIC50) greater than 7.00.
`CNC(=O)c1cccc(-c2cc3c(ncc4cnn(C)c43)[nH]2)c1` [N.1.4] showed a negative-log IC50 (pIC50) greater than 7.00.
In turn, `Cn1ncc2cnc3[nH]c(-c4cccc(C(=O)NCCN5CCOCC5)c4)cc3c21` [N.1.6] had a pIC50 greater than 7.00.
As for `COCCCNC(=O)c1cccc(-c2cc3c(ncc4cnn(C)c43)[nH]2)c1` [N.1.7], the negative-log IC50 (pIC50) was 6.00 to 7.00.
Then `Cn1ncc2cnc3[nH]c(-c4cccc(C(=O)N5CCCC5)c4)cc3c21` [N.1.8], with 6.00 to 7.00.
With `CNC(=O)Cc1cccc(-c2cc3c(ncc4cnn(C)c43)[nH]2)c1` [N.1.9] the figure was 6.00 to 7.00.
`COCCCNC(=O)Cc1cccc(-c2cc3c(ncc4cnn(C)c43)[nH]2)c1` [N.1.11] had a negative-log IC50 (pIC50) of 6.00 to 7.00.
As to `Cn1ncc2cnc3[nH]c(-c4cccc(CC(=O)NCCN5CCOCC5)c4)cc3c21` [N.1.12], the negative logarithm of the IC50 (pIC50) was 6.00 to 7.00.
Then `Cn1ncc2cnc3[nH]c(-c4cccc(S(N)(=O)=O)c4)cc3c21` [N.1.13], with greater than 7.00.
Then `COc1ccc(-c2cc3c(ncc4cnn(C)c43)[nH]2)cc1` [N.1.14], with greater than 7.00; and `CCc1c(-c2ccc3c(ccn3C)c2)[nH]c2ncc3cnn(C)c3c12` [N.1.15], with 5.00 to 6.00; and `CCc1c(-c2cccc3c2ccn3C)[nH]c2ncc3cnn(C)c3c12` [N.1.16], with less than 5.00.
In turn, `Cn1cc(-c2cc3c(ncc4cnn(C)c43)[nH]2)c2cc(F)ccc21` [N.1.17] gave a pIC50 greater than 7.00.
Regarding `COc1ccc2[nH]cc(-c3cc4c(ncc5cnn(C)c54)[nH]3)c2c1` [N.1.19], the pIC50 is greater than 7.00.
Take `CCc1c(-c2ccc(C(C)(C)O)cc2)[nH]c2ncc3cnn(C)c3c12` [N.1.20]: the pIC50 is greater than 7.00.
Take `CCc1c(-c2cccc(S(C)(=O)=O)c2)[nH]c2ncc3cnn(C)c3c12` [N.1.21]: the pIC50 was 6.00 to 7.00.
In turn, `COc1ccc2c(c1)c(-c1cc3c4c(cnc3[nH]1)CCN4C)cn2C` [N.1.22] showed a negative-log IC50 (pIC50) of 5.00 to 6.00.
In turn, `CN1CCc2cnc3[nH]c(-c4ccc(C(C)(C)O)cc4)cc3c21` [N.1.23] showed a negative logarithm of the IC50 (pIC50) of 5.00 to 6.00.
Then `Cn1cc(-c2cc3c(ncc4cnn(C)c43)[nH]2)c2ccccc21` [N.1.24], with greater than 7.00; and `COc1ccc2c(c1)c(-c1cc3c(ncc4cnn(C)c43)[nH]1)cn2CC(=O)N(C)C` [N.1.25], with greater than 7.00.
With `COc1ccc2c(c1)c(-c1cc3c(ncc4cnn(C)c43)[nH]1)cn2CC(O)CO` (centres unmarked) [N.1.26] the figure was greater than 7.00; with `Cn1ncc2cnc3[nH]c(-c4cnc5n4CCC5)cc3c21` [N.1.27], 5.00 to 6.00.
With `COCCNC(=O)Cn1cc(-c2cc3c(ncc4cnn(C)c43)[nH]2)c2cc(OC)ccc21` [N.1.28] the figure was greater than 7.00.
`COc1ccc2c(c1)c(-c1cc3c(ncc4cnn(C)c43)[nH]1)cn2CC(O)CN(C)C` (centres unmarked) [N.1.29] showed a negative-log IC50 (pIC50) greater than 7.00.
With `CCc1c(-c2cccc(C(=O)NCCN3CCOCC3)c2)[nH]c2ncc3cnn(C)c3c12` [N.1.30] the figure was 5.00 to 6.00; with `CCc1c(-c2ccc(N3CCOCC3)cc2)[nH]c2ncc3cnn(C)c3c12` [N.1.31], 6.00 to 7.00.
`CN(C)S(=O)(=O)c1cccc(-c2cc3c(ncc4cnn(C)c43)[nH]2)c1` [N.1.32] showed a pIC50 greater than 7.00.
Then `CNS(=O)(=O)c1cccc(-c2cc3c(ncc4cnn(C)c43)[nH]2)c1` [N.1.33], with greater than 7.00; and `Cn1ncc2cnc3[nH]c(-c4cccc(S(=O)(=O)NCCO)c4)cc3c21` [N.1.34], with greater than 7.00.
`CCc1c(-c2cn(C)c3ccc(OC)cc23)[nH]c2ncc3cnn(C)c3c12` [N.1.35] showed a pIC50 of 5.00 to 6.00.
As to `CCc1c(-c2ccc(C(=O)NCCN3CCOCC3)cc2)[nH]c2ncc3cnn(C)c3c12` [N.1.36], the pIC50 was 6.00 to 7.00.
As to `CCc1c(-c2cn(C)nc2C)[nH]c2ncc3cnn(C)c3c12` [N.1.37], the pIC50 is 5.00 to 6.00.
In turn, `CCc1c(-c2cnn(C)c2C)[nH]c2ncc3cnn(C)c3c12` [N.1.38] had a negative logarithm of the IC50 (pIC50) of 5.00 to 6.00.
`CCCNC(=O)c1cccc(-c2[nH]c3ncc4cnn(C)c4c3c2CC)c1` [N.1.39] had a pIC50 of 5.00 to 6.00.
In turn, `CCc1c(-c2cccc(S(=O)(=O)N(CC)CC)c2)[nH]c2ncc3cnn(C)c3c12` [N.1.40] gave a pIC50 of 5.00 to 6.00.
With `Cn1ncc2cnc3[nH]c(-c4cccc(S(=O)(=O)NCCN5CCOCC5)c4)cc3c21` [N.1.41] the figure was 6.00 to 7.00; with `COCCNS(=O)(=O)c1cccc(-c2cc3c(ncc4cnn(C)c43)[nH]2)c1` [N.1.42], 6.00 to 7.00.
With `CCc1c(-c2ccc(OC)cc2)[nH]c2ncc3cnn(C)c3c12` [N.1.43] the figure was 6.00 to 7.00; with `CCc1c(-c2cnn(C)c2)[nH]c2ncc3cnn(C)c3c12` [N.1.44], 6.00 to 7.00; with `CCc1c(-c2ccc(OCCN3CCOCC3)cc2)[nH]c2ncc3cnn(C)c3c12` [N.1.45], 6.00 to 7.00.
